Laboratory results as given in patent publication US5571804A, “Cephalosporin antibiotics” (priority 1993, dated 1996).

Experiments:
Assay in all cases: MIC, two-fold agar dilution
Format in all cases: cell-based
Settings in all cases: Muller-Hinton agar, 37° C., 20 hours
E. coli 3190Y = test system: E. coli 3190Y
[1] = test system: Enterobacter cloacae IND + VE 1194E
Enterobacter cloacae P99 = test system: Enterobacter cloacae P99
E. coli 851E = test system: E. coli 851E
E. coli TEM9 2639E = test system: E. coli TEM9 2639E
[2] = test system: Serratia marcescens 1826E
E. coli TEM1 1193E = test system: E. coli TEM1 1193E
[3] = test system: Streptococcus laecalis 29212A
[4] = test system: Salmonella typhimurium 14028A
[5] = test system: Klebsiella aerogenes K1 + 1082E
E. coli TEM7 3457E = test system: E. coli TEM7 3457E
[6] = test system: Staphylococcus aureus 241
E. coli TEM5 3739E = test system: E. coli TEM5 3739E
[7] = test system: Pseudomonas aeruginosa 6065
E. coli 10536 = test system: E. coli 10536
Staphylococcus aureus 77 = test system: Staphylococcus aureus 77
[8] = test system: Citrobacter diversus 2046E
Proteus vularis 6059A = test system: Proteus vularis 6059A
[9] = test system: Staphylococcus aureus 6538P
[10] = test system: Klebsiella aerogenes SHV-1 1976E
[11] = test system: Pseudomonas aeruginosa 1912E
[12] = test system: Staphylococcus aureus giorgio
[13] = test system: Pseudomonas aeruginosa 10145
[14] = test system: Acinetobacter calcoaceticus 15473A
E. coli TEM3 3455E = test system: E. coli TEM3 3455E
[15] = test system: Staphylococcus epidermidis 887E

| SMILES | minimal inhibitory concentration (MIC) (E. coli 3190Y) | minimal inhibitory concentration (MIC) [1] | minimal inhibitory concentration (MIC) (Enterobacter cloacae P99) | minimal inhibitory concentration (MIC) (E. coli 851E) | minimal inhibitory concentration (MIC) (E. coli TEM9 2639E) | minimal inhibitory concentration (MIC) [2] | minimal inhibitory concentration (MIC) (E. coli TEM1 1193E) | minimal inhibitory concentration (MIC) [3] | minimal inhibitory concentration (MIC) [5] | minimal inhibitory concentration (MIC) (E. coli TEM7 3457E) | minimal inhibitory concentration (MIC) [6] | minimal inhibitory concentration (MIC) (E. coli TEM5 3739E) | minimal inhibitory concentration (MIC) [7] | minimal inhibitory concentration (MIC) (E. coli 10536) | minimal inhibitory concentration (MIC) (Staphylococcus aureus 77) | minimal inhibitory concentration (MIC) [8] | minimal inhibitory concentration (MIC) (Proteus vularis 6059A) | minimal inhibitory concentration (MIC) [9] | minimal inhibitory concentration (MIC) [10] | minimal inhibitory concentration (MIC) [12] | further results |
| --- | --- | --- | --- | --- | --- | --- | --- | --- | --- | --- | --- | --- | --- | --- | --- | --- | --- | --- | --- | --- | --- |
| Nc1cc(N)nc(SCC2=C(C(=O)O)N3C(=O)[C@@H](NC(=O)/C(=N\O[C@@H](C(=O)O)c4ccc(O)c(O)c4)c4csc(N)n4)[C@H]3SC2)n1 [Compound I-1R, 7-[(Z)-2-(aminothiazol-4-yl)-2-(α-carboxy-3,4-dihydroxybenzyloxyimino)acetamido]-3-(4,6-diamino-pyrimidine-2-yl) thiomethyl-3-cephem-4-carboxylate] | 0.13 | 32 | 32 | 0.13 | 0.5 | 2 | 0.25 | 16 | 0.5 | 0.063 | 128 | 0.25 | 8 | 0.063 | 32 | 1 | 0.5 | 2 | 0.5 | 1 | minimal inhibitory concentration (MIC) [4]: 0.13; minimal inhibitory concentration (MIC) [11]: 1; minimal inhibitory concentration (MIC) [13]: 2; minimal inhibitory concentration (MIC) [14]: 1; minimal inhibitory concentration (MIC) (E. coli TEM3 3455E): 0.25 |
| Cc1c(N)nc(SCC2=C(C(=O)O)N3C(=O)[C@@H](NC(=O)/C(=N\O[C@@H](C(=O)O)c4ccc(O)c(O)c4)c4csc(N)n4)[C@H]3SC2)nc1N [Compound I-2R, 7-[(Z)-2-(aminothiazol-4-yl)-2-(α-carboxyl-3,4-dihydroxybenzyloxyimino)acetamido]-3-(4,6-diamino-5-methylpyrimidine-2-yl)thiomethyl-3-cephem-4-carboxylate] | 0.13 | 32 | 32 | 0.13 | 0.5 | 2 | 0.5 | 32 | 1 | 0.016 | 128 | 0.25 | 8 | 0.063 | 32 | 2 | 0.5 | 2 | 0.5 | 1 | minimal inhibitory concentration (MIC) [4]: 0.25; minimal inhibitory concentration (MIC) [13]: 2; minimal inhibitory concentration (MIC) [14]: 1; minimal inhibitory concentration (MIC) (E. coli TEM3 3455E): 0.25 |
| Nc1ccnc(SCC2=C(C(=O)O)N3C(=O)[C@@H](NC(=O)/C(=N\O[C@@H](C(=O)O)c4ccc(O)c(O)c4)c4csc(N)n4)[C@H]3SC2)n1 [Compound I-3R, 7-[(Z)-2-(aminothiazol-4-yl)-2-(α-carboxyl-3,4-dihydroxybenzyloxyimino)acetamido]-3-(4-amino-pyrimidine-2-yl) thiomethyl-3-cephem-4-carboxylate] | 0.13 | 32 | 16 | 0.13 | 0.5 | 2 | 0.5 | 32 | 0.5 | 0.016 | 128 | 0.25 | 8 | 0.031 | 16 | 2 | 0.5 | 2 | 1 | 2 | minimal inhibitory concentration (MIC) [11]: 1; minimal inhibitory concentration (MIC) [13]: 2; minimal inhibitory concentration (MIC) [14]: 1; minimal inhibitory concentration (MIC) (E. coli TEM3 3455E): 0.25 |
| Nc1nc(/C(=N/O[C@@H](C(=O)O)c2ccc(O)c(O)c2)C(=O)N[C@@H]2C(=O)N3C(C(=O)O)=C(CSc4nc(N)c5c(n4)CCC5)CS[C@H]23)cs1 [Compound I-4R, 7-[(Z)-2-(aminothiazol-4-yl)-2-(α-carboxyl-3,4-dihydroxybenzyioxyimino)acetamido]-3-(4-amino-5,6-cyclopentapyrimidine-2-yl)thiomethyl-3-cephem-4-carboxylate] | 0.25 | 32 | 32 | 0.13 | 0.5 | 2 | 0.5 | 16 | 1 | 0.063 | 128 | 0.25 | 8 | 0.063 | 32 | 2 | 0.5 | 2 | 0.5 | 2 | minimal inhibitory concentration (MIC) [4]: 0.13; minimal inhibitory concentration (MIC) [15]: 32; minimal inhibitory concentration (MIC) [13]: 2; minimal inhibitory concentration (MIC) [14]: 1; minimal inhibitory concentration (MIC) (E. coli TEM3 3455E): 0.25 |
| Nc1nc(/C(=N/O[C@@H](C(=O)O)c2ccc(O)c(O)c2)C(=O)N[C@@H]2C(=O)N3C(C(=O)O)=C(CSc4nc(N)c(N)c(N)n4)CS[C@H]23)cs1 [Compound I-5R, 7-[(Z)-2-(aminothiazol-4-yl)-2-(α-carboxy-3,4-dihydroxybenzyloxyimino)acetamido]-3-(4,5,6-triaminopyrimidine-2-yl)thiomethyl-3-cephem-4-carboxylate] | 0.063 | 32 | 32 | 0.13 | 0.5 | 2 | 0.25 | 16 | 0.5 | 0.063 | 128 | 0.25 | 8 | 0.063 | 32 | 1 | 0.5 | 2 | 0.25 | 1 | minimal inhibitory concentration (MIC) [4]: 0.13; minimal inhibitory concentration (MIC) [11]: 1; minimal inhibitory concentration (MIC) [13]: 2; minimal inhibitory concentration (MIC) [14]: 1; minimal inhibitory concentration (MIC) (E. coli TEM3 3455E): 0.25 |
